Measured values: BindingDB's records for patent US12410160 (Gilead Sciences, 2025)
pIC50: −log10 of the molar value.

Columns and labels:
Ketohexokinase = target: T1, Ketohexokinase (Human, UniProt P50053); assay: KHK Biochemical Assay
T1 sequence (P50053 whole entry): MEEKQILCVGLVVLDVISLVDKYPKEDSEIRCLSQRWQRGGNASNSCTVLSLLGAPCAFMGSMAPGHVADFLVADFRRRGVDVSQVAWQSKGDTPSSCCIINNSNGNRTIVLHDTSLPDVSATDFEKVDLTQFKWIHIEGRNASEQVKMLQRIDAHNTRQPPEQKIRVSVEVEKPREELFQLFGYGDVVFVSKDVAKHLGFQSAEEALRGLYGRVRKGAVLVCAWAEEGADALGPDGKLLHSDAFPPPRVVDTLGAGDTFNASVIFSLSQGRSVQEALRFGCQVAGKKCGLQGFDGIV
Procedure: (§1) Compounds were tested for KHK enzyme inhibition in a high-throughput 384-well assay format using the ADP-Glo assay (Promega) in buffer consisting of 50 mM Hepes (pH 7.4), 140 mM KCl, 5 mM MgCl2 and 0.01% Triton-X. 0.2 nM. […] Compounds were serially diluted (1:3) in DMSO. […] The plates were incubated at room temperature for 4 hours before adding ADP-Glo reagent to quench the enzyme reaction, followed by incubation at room temperature for 1 hour. The ADP-Glo detection reagent was then added to the plates and luminescence was measured on the Envision plate reader after 1 hour.

[1] = target: T2, Isoform A of Ketohexokinase (Peripheral) (Human, UniProt P50053); assay: KHK Biochemical Assay
T2 sequence (P50053 whole entry): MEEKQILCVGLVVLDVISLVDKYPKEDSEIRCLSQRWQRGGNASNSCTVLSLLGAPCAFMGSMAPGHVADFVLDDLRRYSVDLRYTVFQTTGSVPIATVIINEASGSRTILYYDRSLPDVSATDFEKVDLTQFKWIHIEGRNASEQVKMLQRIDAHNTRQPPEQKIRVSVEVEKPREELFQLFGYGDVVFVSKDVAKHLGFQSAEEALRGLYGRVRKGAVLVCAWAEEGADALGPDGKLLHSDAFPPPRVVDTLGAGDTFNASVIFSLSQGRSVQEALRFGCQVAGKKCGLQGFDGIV
Procedure: as §1

Row | SMILES | pIC50 (Ketohexokinase) | pIC50 [1]
1 | C[C@H]1CCN1c1nc2c(c(-c3ccc4c(c3)CN(S(=O)(=O)CC#N)CC4)n1)CCC2 [US12410160, Example 604] | 6.62 | –
2 | CC1CCCc2nc(N3CC[C@@H]3C)nc(-c3ccccc3)c21 (some centres not stated) [US12410160, Example 340] | – | < 4.30
3 | C[C@H]1CCN1c1nc2c(c(-c3nc4ccccc4[nH]3)n1)CCC2 [US12410160, Example 389] | 6.42 | 6.53
4 | C[C@H]1CCN1c1nc2c(c(-c3ccnc(S(N)(=O)=O)c3)n1)CCC2 [US12410160, Example 224] | 6.94 | 6.81
5 | C[C@H]1CCN1c1nc(-c2ccc(C(N)=O)cc2)c2cn[nH]c2n1 [US12410160, Example 401] | 5.33 | –
6 | C[C@H]1[C@H](F)CN1c1nc2c(c(-c3ccc4c(c3)C(=O)N(C)C4)n1)CCC2 [US12410160, Example 203] | 7.53 | 7.18
7 | NC1(c2ccc(-c3nc(N4CCC4C4CC(F)(F)C4)nc4c3CCC4(F)F)cc2)COC1 (configuration not stated) [US12410160, Example 573] | – | < 7.00
8 | C[C@H]1CCN1c1nc(-c2cn(C3CNC3)nn2)c2c(n1)C(F)(F)CC2 [US12410160, Example 653] | 8.09 | –
9 | Cc1cc(-c2nc(N3CC[C@@H]3C(F)(F)F)nc3c2CCC3(F)F)ccc1C1(N)COC1 [US12410160, Example 586] | 9.15 | 8.89
10 | C[C@H]1CCN1c1nc(-c2ccc(-n3ccnn3)cc2)c2c(n1)C(F)(F)CC2 [US12410160, Example 655] | 7.60 | –
11 | C[C@H]1CCN1c1nc2c(c(-c3ccc(CNS(C)(=O)=O)cc3)n1)CCC2 [US12410160, Example 361] | 7.52 | 7.16
12 | C[C@H]1CCN1c1nc2c(c(-c3cccc(S(N)(=O)=O)n3)n1)CCC2 [US12410160, Example 223] | 7.57 | 7.47
13 | C[C@H]1[C@H](O)CN1c1nc(-c2cccc(-n3cnnc3)c2)c2c(n1)C(F)(F)CC2 [US12410160, Example 619] | 7.84 | –
14 | C[C@H]1CCN1c1nc(-c2cccc(-n3ccnn3)c2)c2c(n1)C(F)(F)CC2 [US12410160, Example 654] | 7.79 | –
15 | C[C@H]1[C@H](O)CN1c1nc(-c2ccc(OC(F)F)c(S(C)(=N)=O)c2)c2c(n1)C(F)(F)CC2 (some centres not stated) [US12410160, Example 532] | 8.55 | –
16 | C[C@H]1[C@H](CO)CN1c1nc2c(c(-c3ccc(C(N)=O)cc3)n1)CCC2 (racemic) [US12410160, Example 267] | < 5.30 | –
17 | C[C@H]1CCN1c1nc2c(c(-c3ccc4c(c3)CCNC4=O)n1)CCC2 [US12410160, Example 283] | 7.80 | 7.54
18 | C[C@H]1[C@H](O)CN1c1nc(-c2ccc3c(c2)C(NS(C)(=O)=O)CC3)c2c(n1)C(F)(F)CC2 (some centres not stated) [US12410160, Example 621] | 8.89 | –
19 | COc1ccc(-c2nc(N3CC[C@@H]3C(F)(F)F)nc3c2CCC3(F)F)cc1[S@@](C)(=N)=O [US12410160, Example 825] | 9.05 | 9.30
20 | C[C@H]1[C@H](O)CN1c1nc(-c2ccc3c(c2)C(NS(C)(=O)=O)CO3)c2c(n1)C(F)(F)CC2 (some centres not stated) [US12410160, Example 613] | 8.37 | –
21 | C[C@H]1CCN1c1nc(-c2ccc(C#N)c(S(C)(=N)=O)c2)c2c(n1)C(F)(F)CC2 (some centres not stated) [US12410160, Example 798] | 7.28 | –
22 | C[C@H]1CCN1c1nc2c(c(-c3cn(C4CC4)nn3)n1)CCC2 [US12410160, Example 644] | 6.66 | –
23 | C[C@H]1[C@H](O)CN1c1nc(-c2ccc3c(c2)CCC32COCCC(=O)N2)c2c(n1)C(F)(F)CC2 (some centres not stated) [US12410160, Example 552] | 7.41 | –
24 | C[C@H]1[C@H](O)CN1c1nc2c(c(-c3ccc4c(N)nccc4c3)n1)CCC2 [US12410160, Example 385] | 8.74 | 8.38
25 | C[C@H]1[C@H](O)CN1c1nc(-c2cccc(N=S3(=O)CCOCC3)c2)c2c(n1)C(F)(F)CC2 [US12410160, Example 673] | 8.04 | –
26 | C[C@H]1CCN1c1nc2c(c(-c3cccc(C4(N)CC4)c3)n1)CCC2 [US12410160, Example 225] | 6.46 | 6.53
27 | N#C[C@H]1CCN1c1nc(-c2ccc([C@@H](N)C(F)F)cc2)c2c(n1)C(F)(F)CC2 [US12410160, Example 660] | 8.24 | –

Row | SMILES | pIC50 (Ketohexokinase) | pIC50 [1]
28 | C[C@H]1[C@H](F)CN1c1nc2c(c(-c3cccc(CN)c3)n1)CCC2 [US12410160, Example 352] | 7.53 | 7.45
29 | C[C@H]1[C@H](O)CN1c1nc(-c2ccc3c(c2)S(C)(=O)=NC3)c2c(n1)C(F)(F)CC2 (some centres not stated) [US12410160, Example 805] | 7.74 | –
30 | C[C@H]1CCN1c1nc(-c2ccc([C@H](N)C(F)F)cc2)c2c(n1)C(F)(F)CC2 [US12410160, Example 650] | 8.18 | –
31 | C[C@H]1CCN1c1nc2c(c(-c3ccc4c(c3)C(=O)N(C)C4)n1)CCC2 [US12410160, Example 206] | 7.80 | 7.61
32 | C[C@H]1[C@H](O)CN1c1nc(-c2cccc(S(=N)(=O)CC#N)c2)c2c(n1)C(F)(F)CC2 (some centres not stated) [US12410160, Example 628] | 8.06 | 7.99
33 | CCOC(=O)NCc1ccc(-c2nc(N3CC[C@@H]3C)nc3c2CCC3)cc1 [US12410160, Example 358] | 6.53 | 6.36
34 | C[C@H]1[C@H](O)CN1c1nc(-c2ccc3c(c2)COC[C@@H]3NS(=O)(=O)CF)c2c(n1)C(F)(F)CC2 [US12410160, Example 580] | 8.43 | 7.89
35 | COC(=O)N[C@@H]1COc2cc(-c3nc(N4C[C@@H](O)[C@@H]4C)nc4c3CCC4(F)F)ccc21 [US12410160, Example 815] | 8.04 | –
36 | COC(=O)N[C@H]1COc2cc(-c3nc(N4C[C@@H](O)[C@@H]4C)nc4c3CCC4(F)F)ccc21 [US12410160, Example 814] | 8.74 | 7.15
37 | C[C@H]1CCN1c1nc2c(c(-c3cn(CCO)nn3)n1)CCC2 [US12410160, Example 645] | 6.80 | –
38 | C[C@H]1[C@H](O)CN1c1nc(-c2ccc3c(c2)C(=O)N(C)C3)c2c(n1)C(F)(F)CC2 [US12410160, Example 236] | 8.27 | –
39 | C[C@H]1[C@H](O)CN1c1nc(-c2ccc3c(c2)S(=O)(=O)CC3NS(C)(=O)=O)c2c(n1)C(F)(F)CC2 (some centres not stated) [US12410160, Example 665] | 9.05 | –
40 | CCS(=O)(=O)N[C@H]1COc2cc(-c3nc(N4C[C@@H](O)[C@@H]4C)nc4c3CCC4(F)F)ccc21 [US12410160, Example 624] | 8.14 | –
41 | C[C@H]1[C@H](O)CN1c1nc(-c2ccc3c(c2)OC(C(F)F)CNC3=O)c2c(n1)C(F)(F)CC2 (some centres not stated) [US12410160, Example 597] | 8.25 | –
42 | C[C@H]1CCN1c1nc2c(c(-c3ccc(C4(NS(C)(=O)=O)CC4)cc3)n1)CCC2 [US12410160, Example 306] | – | 6.55
43 | C[C@H]1CCN1c1nc2c(c(-c3cccc(C4CCS(=O)(=O)N4)c3)n1)CCC2 (some centres not stated) [US12410160, Example 606] | 7.82 | –
44 | C[C@H]1[C@H](O)CN1c1nc(-c2cn(C3CNC3)nn2)c2c(n1)C(F)(F)CC2 [US12410160, Example 647] | 7.81 | –
45 | C[C@H]1CCN1c1nc(-c2cccc(C(N)=O)c2)c2c(n1)C1CC1C2 (some centres not stated) [US12410160, Example 272] | 6.50 | 6.57
46 | FC1(F)CCc2c(-c3ccc4c(c3)OC[C@@H]4NC3COC3)nc(N3CC[C@@H]3C(F)(F)F)nc21 [US12410160, Example 588] | 8.43 | 8.03
47 | C[C@H]1[C@H](O)CN1c1nc2c(c(-c3cccc(S(N)(=O)=O)c3)n1)CCC2 [US12410160, Example 209] | 7.26 | 7.45
48 | C[C@H]1[C@H](O)CN1c1nc(-c2ccc3c(c2)CNCC3)c2c(n1)C(F)(F)CC2 [US12410160, Example 612] | 7.49 | –
49 | C[C@H]1CCN1c1nc2c(c(-c3cncn3C)n1)CCC2 [US12410160, Example 341] | 6.95 | 6.88
50 | C[C@H]1[C@H](O)CN1c1nc(-c2ccc3c(c2)CCS3(=N)=O)c2c(n1)C(F)(F)CC2 (some centres not stated) [US12410160, Example 664] | 7.76 | –
51 | C[C@H]1[C@H](O)CN1c1nc2c(c(-c3ccc(C(C)(C)O)cc3)n1)CCC2 [US12410160, Example 371] | 6.73 | 6.35
52 | C[C@H]1CCN1c1nc2c(c(-c3ccnc(F)c3)n1)CCC2 [US12410160, Example 281] | – | 6.47
53 | C[C@H]1[C@H](O)CN1c1nc(-c2ccc3c(c2)COCC32CCC(=O)N2)c2c(n1)C(F)(F)CC2 (some centres not stated) [US12410160, Example 639] | 8.92 | 7.80
54 | C[C@H]1[C@H](F)CN1c1nc2c(c(-c3cccc(S(N)(=O)=O)c3)n1)CCOC2 [US12410160, Example 287] | 5.89 | 6.16
